Experimental data taken from US20050250801A1, “Method of treating cancer with azaspirane compositions” (priority 2003, published 2005).
Where two headings read alike, the source gives them in different places.

Legend:
Type in all cases: cell-based
786-0 = experiment: NCI in vitro SRB assay, Renal Cancer; details: for CC50 / GI50: Homo sapiens
Description: (§1) An in vitro assay which tested the ability of N,N,-diethyl-8,8-dipropyl-2-azaspiro[4,5]decane-2-propanamine dimaleate (Compound 1) to inhibit the growth of known cancer cell lines was performed by the National Cancer Institute in accordance with standard procedures. See: Lin, Z. X., Hoult, J. R., and Raman, A. Sulphorhodamine B assay for measuring proliferation of a pigmented melanocyte cell line and its application to the evaluation of crude drugs used in the treatment of vitiligo. J Ethnopharmacol. 66: 141-150, 1999. Briefly, selected tumor cell lines were cultured in media containing five different concentrations of Compound 1. After 48 hours of continuous exposure, a sulforhodamine B (SRB) assay was used to estimate cell viability or growth via optical measurements.
(§2) From the measurements, the following values were determined: 1) the concentration of Compound 1 at which a tumor cell growth inhibition of 50% (relative to control) occurs (GI50), 2) the concentration of Compound 1 at which no growth occurs (total growth inhibition, TGI), and 3) the concentration of Compound 1 at which the […] (LC 50). […] FIG. 6 illustrates, graphically, tumor cell growth as a function of Compound 1 concentration of the scanned tumor cell lines.

CAKI-1 = experiment: NCI in vitro SRB assay, Renal Cancer; details: for CC50 / GI50: Homo sapiens
Description: as §1, §2

BT-549 = experiment: NCI in vitro SRB assay, Breast Cancer
Description: as §1, §2

HS 578T = experiment: NCI in vitro SRB assay, Breast Cancer; details: for CC50 / GI50: Homo sapiens; for CC50: Hs-578T
Description: as §1, §2

[1] = CAKI-1, Log10 conc -4.0 Moles/L
[2] = CAKI-1, Log10 conc -5.0 Moles/L
[3] = CAKI-1, Log10 conc -6.0 Moles/L
[4] = CAKI-1, Log10 conc -7.0 Moles/L
[5] = CAKI-1, Log10 conc -8.0 Moles/L
[6] = BT-549, Log10 conc -4.0 Moles/L
[7] = BT-549, Log10 conc -5.0 Moles/L
[8] = BT-549, Log10 conc -6.0 Moles/L
[9] = BT-549, Log10 conc -7.0 Moles/L
[10] = BT-549, Log10 conc -8.0 Moles/L
[11] = HS 578T, Log10 conc -4.0 Moles/L
[12] = HS 578T, Log10 conc -5.0 Moles/L
[13] = HS 578T, Log10 conc -6.0 Moles/L
[14] = HS 578T, Log10 conc -7.0 Moles/L
[15] = HS 578T, Log10 conc -8.0 Moles/L

**Q.** What does the source list for `CCCC1(CCC)CCC2(CCN(CCCN(CC)CC)C2)CC1.O=C(O)/C=C\C(=O)O.O=C(O)/C=C\C(=O)O` [Compound 1, N,N,-diethyl-8,8-dipropyl-2-azaspiro[4,5]decane-2-propanamine dimaleate]?
**A.** Log10 TGI (786-0; 786-0): −5.48; TGI (786-0; 786-0): 3.33 µM; Mean Optical Densities (786-0; 786-0, Log10 conc -4.0 Moles/L): 0.132; Percent Growth (786-0; 786-0, Log10 conc -4.0 Moles/L): −64%; Mean Optical Densities (786-0; 786-0, Log10 conc -5.0 Moles/L): 0.121; Percent Growth (786-0; 786-0, Log10 conc -5.0 Moles/L): −67%; Mean Optical Densities (786-0; 786-0, Log10 conc -6.0 Moles/L): 0.934; Percent Growth (786-0; 786-0, Log10 conc -6.0 Moles/L): 73%; Mean Optical Densities (786-0; 786-0, Log10 conc -7.0 Moles/L): 1.091; Percent Growth (786-0; 786-0, Log10 conc -7.0 Moles/L): 94%; Mean Optical Densities (786-0; 786-0, Log10 conc -8.0 Moles/L): 1.111; Percent Growth (786-0; 786-0, Log10 conc -8.0 Moles/L): 96%; CC50 (786-0; 786-0, read-out: LC50): 7.57 µM; CC50 (786-0; 786-0, read-out: Log10 LC50 (converted)): 7.59 µM; GI50 (786-0; 786-0, read-out: GI50): 1.47 µM; GI50 (786-0; 786-0, read-out: Log10 GI50 (converted)): 1.48 µM; Log10 TGI (CAKI-1; CAKI-1): −5.49; TGI (CAKI-1; CAKI-1): 3.27 µM; Mean Optical Densities (CAKI-1; [1]): 0.136; Percent Growth (CAKI-1; [1]): −83%; Mean Optical Densities (CAKI-1; [2]): 0.150; Percent Growth (CAKI-1; [2]): −81%; Mean Optical Densities (CAKI-1; [3]): 1.691; Percent Growth (CAKI-1; [3]): 86%; Mean Optical Densities (CAKI-1; [4]): 1.607; Percent Growth (CAKI-1; [4]): 78%; Mean Optical Densities (CAKI-1; [5]): 1.646; Percent Growth (CAKI-1; [5]): 82%; CC50 (CAKI-1; CAKI-1, read-out: LC50): 6.51 µM; CC50 (CAKI-1; CAKI-1, read-out: Log10 LC50 (converted)): 6.46 µM; GI50 (CAKI-1; CAKI-1, read-out: GI50): 1.65 µM; GI50 (CAKI-1; CAKI-1, read-out: Log10 GI50 (converted)): 1.66 µM; TGI (BT-549; BT-549): 3.23 µM; Log10 TGI (BT-549; BT-549 (so in the source)): −5.39; Mean Optical Densities (BT-549; [6]): 0.007; Percent Growth (BT-549; [6]): −98%; Mean Optical Densities (BT-549; [7]): 0.027; Percent Growth (BT-549; [7]): −94%; Mean Optical Densities (BT-549; [8]): 0.856; Percent Growth (BT-549; [8]): 98%; Mean Optical Densities (BT-549; [9]): 0.904; Percent Growth (BT-549; [9]): 109%; Mean Optical Densities (BT-549; [10]): 0.859; Percent Growth (BT-549; [10]): 98%; CC50 (BT-549; Homo sapiens, BT-549, read-out: LC50): 5.89 µM; GI50 (BT-549; Homo sapiens, BT-549, read-out: GI50): 1.77 µM; GI50 (BT-549; Homo sapiens, BT-549 (so in the source), read-out: Log10 GI50 (converted)): 1.7 µM; TGI (HS 578T; HS 578T): 3.96 µM; Log10 TGI (HS 578T; HS 578T (so in the source)): −6.09; Mean Optical Densities (HS 578T; [11]): 0.264; Percent Growth (HS 578T; [11]): −62%; Mean Optical Densities (HS 578T; [12]): 0.269; Percent Growth (HS 578T; [12]): −61%; Mean Optical Densities (HS 578T; [13]): 1.217; Percent Growth (HS 578T; [13]): 91%; Mean Optical Densities (HS 578T; [14]): 1.258; Percent Growth (HS 578T; [14]): 98%; Mean Optical Densities (HS 578T; [15]): 1.206; Percent Growth (HS 578T; [15]): 89%; CC50 (HS 578T; read-out: LC50): 8.43 µM; CC50 (HS 578T; read-out: Log10 LC50 (converted)): 6.17 µM; GI50 (HS 578T; HS 578T (so in the source), read-out: Log10 GI50 (converted)): 0.269 µM; GI50 (HS 578T; HS 578T, read-out: GI50): 1.86 µM
